In general, EC50 refers to the concentration at which the effect is half-maximal. High values mean weaker potency, low ones greater potency.

One assay addresses T1, PKN1 (Homo sapiens, UniProt Q16512).
T1 construct: a mixture of lysates from five cancer cell lines; endogenous in cells
The experiment in a line: Kinobeads full dose-response competition binding: PKN1. To be noted: Gene Name PKN1; for Relative Intensity 0.3nM: 0.3nM compound; for Relative Intensity 0.3nM / Relative Intensity 1nM / Relative Intensity 3nM / Relative Intensity 10nM / Relative Intensity 30nM / Relative Intensity 100nM / Relative Intensity 300nM / Relative Intensity 1000nM: DMSO = 1; for Relative Intensity 1nM: 1nM compound; for Relative Intensity 3nM: 3nM compound; for Relative Intensity 10nM: 10nM compound; for Relative Intensity 30nM: 30nM compound; for Relative Intensity 100nM: 100nM compound; for Relative Intensity 300nM: 300nM compound; for Relative Intensity 1000nM: 1000nM compound.

The target of the next assay is T2, FRK (Homo sapiens, UniProt P42685).
T2 construct: endogenous in cells
T2 sequence (P42685 whole entry): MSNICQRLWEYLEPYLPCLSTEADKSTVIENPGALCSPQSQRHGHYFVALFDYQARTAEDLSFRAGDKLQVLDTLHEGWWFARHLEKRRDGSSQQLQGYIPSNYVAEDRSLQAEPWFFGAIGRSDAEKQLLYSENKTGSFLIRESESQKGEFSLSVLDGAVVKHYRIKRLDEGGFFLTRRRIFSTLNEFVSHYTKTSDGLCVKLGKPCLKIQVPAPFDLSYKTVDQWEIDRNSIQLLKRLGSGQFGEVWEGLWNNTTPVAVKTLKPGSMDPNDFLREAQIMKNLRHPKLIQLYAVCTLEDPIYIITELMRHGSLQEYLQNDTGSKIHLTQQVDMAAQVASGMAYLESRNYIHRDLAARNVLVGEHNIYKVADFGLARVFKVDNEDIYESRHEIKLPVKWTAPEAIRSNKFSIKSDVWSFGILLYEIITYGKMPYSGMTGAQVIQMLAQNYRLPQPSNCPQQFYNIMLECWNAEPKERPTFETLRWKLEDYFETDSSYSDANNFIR
The experiment in a line: Kinobeads two-dose competition binding: FRK. To be noted: read-out: Lestaurtinib Drugmatrix value, Gene Name FRK; target FRK; each column = one Lestaurtinib control replicate (batch_R1-R3).

Another assay concerns the target T3, HCK (Homo sapiens, UniProt P08631).
T3 construct: endogenous in cells
The experiment in a line: Kinobeads two-dose competition binding: HCK. To be noted: read-out: Lestaurtinib Drugmatrix value, Gene Name HCK; target HCK; each column = one Lestaurtinib control replicate (batch_R1-R3).

The target of a further assay is T4, RIPK3 (Homo sapiens, UniProt Q9Y572).
T4 construct: endogenous in cells
T4 sequence (Q9Y572 whole entry): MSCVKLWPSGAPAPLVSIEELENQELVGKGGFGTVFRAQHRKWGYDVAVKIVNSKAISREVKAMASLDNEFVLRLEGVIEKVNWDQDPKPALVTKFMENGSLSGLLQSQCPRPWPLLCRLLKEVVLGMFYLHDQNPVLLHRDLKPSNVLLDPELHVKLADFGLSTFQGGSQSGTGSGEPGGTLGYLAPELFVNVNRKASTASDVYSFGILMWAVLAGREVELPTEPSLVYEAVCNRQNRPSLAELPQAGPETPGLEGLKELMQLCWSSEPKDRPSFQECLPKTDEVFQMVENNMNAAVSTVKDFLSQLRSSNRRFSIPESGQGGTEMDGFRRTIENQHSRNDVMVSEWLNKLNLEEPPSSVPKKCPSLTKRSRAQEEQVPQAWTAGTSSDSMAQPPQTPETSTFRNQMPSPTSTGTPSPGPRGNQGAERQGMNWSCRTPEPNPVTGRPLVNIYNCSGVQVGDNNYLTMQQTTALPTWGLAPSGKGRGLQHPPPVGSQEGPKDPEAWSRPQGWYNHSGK
The experiment in a line: Kinobeads full dose-response competition binding: RIPK3. The conditions noted are these: Gene Name RIPK3.

The test system of assay [1] is IL-10 secretion in primary bone marrow-derived dendritic cells (BMDCs). The experiment in a line: IL-10 cytokine secretion assay (ELISA) in Zymosan-stimulated primary BMDCs. The conditions noted are these: murine BMDCs, inhibitor 30 min before Zymosan stimulation. It is filed as cell-based, mouse. Here is the method: A subsequent full dose–response experiment confirmed potent and selective binding to SYK ( Kdapp = 58 nM, […] = 0.60; Extended Data Fig. 5a,b). […] One of the effects of Zymosan is that it activates Dectin-1 signaling, in turn activating SYK and leading to increased IL-10 cytokine production (Fig. 3c)[34]. Treatment of cells with the respective SYK inhibitors before Zymosan stimulation indeed led to decreased levels of IL-10 in a dose-dependent fashion (Fig. 3d). […] In line with the cytokine readout, we observed a dose depended reduction of pTyr525/526 indicating SYK inhibition in live cells (Fig. 3e and Extended Data Fig. 5c).
Primary BMDCs were obtained from 9-week-old C57BL/6 mice that were maintained under standard specific pathogen-free conditions. BMDCs were differentiated for 7 days in Roswell Park Memorial Institute medium (Gibco) and granulocyte-macrophage colony-stimulating factor. On day seven, BMDCs were seeded in 96-well plates at 10^5 cells per well in 100 µl of culture medium followed by incubation for 4 h at 37 °C. Subsequently, cells were incubated with SYK inhibitors for 30 min followed by stimulation with Zymosan (final concentration of 50 µg ml^−1; Invivogen) and dispersed in culture medium for 24 h. […] For cytokine secretion quantification, cell culture medium was collected and concentrations of IL-10 in the supernatant were determined using mouse enzyme-linked immunosorbent assay kits (IL-10: Invitrogen) according to the manufacturer’s protocol. Experiments were performed in biological triplicates.
For orientation: An ELISA detects its analyte on a solid surface through an enzyme-linked reagent.

For a further assay, the target named is T5, PIK3CG (Homo sapiens, UniProt P48736).
T5 construct: endogenous in cells
T5 sequence (P48736 whole entry): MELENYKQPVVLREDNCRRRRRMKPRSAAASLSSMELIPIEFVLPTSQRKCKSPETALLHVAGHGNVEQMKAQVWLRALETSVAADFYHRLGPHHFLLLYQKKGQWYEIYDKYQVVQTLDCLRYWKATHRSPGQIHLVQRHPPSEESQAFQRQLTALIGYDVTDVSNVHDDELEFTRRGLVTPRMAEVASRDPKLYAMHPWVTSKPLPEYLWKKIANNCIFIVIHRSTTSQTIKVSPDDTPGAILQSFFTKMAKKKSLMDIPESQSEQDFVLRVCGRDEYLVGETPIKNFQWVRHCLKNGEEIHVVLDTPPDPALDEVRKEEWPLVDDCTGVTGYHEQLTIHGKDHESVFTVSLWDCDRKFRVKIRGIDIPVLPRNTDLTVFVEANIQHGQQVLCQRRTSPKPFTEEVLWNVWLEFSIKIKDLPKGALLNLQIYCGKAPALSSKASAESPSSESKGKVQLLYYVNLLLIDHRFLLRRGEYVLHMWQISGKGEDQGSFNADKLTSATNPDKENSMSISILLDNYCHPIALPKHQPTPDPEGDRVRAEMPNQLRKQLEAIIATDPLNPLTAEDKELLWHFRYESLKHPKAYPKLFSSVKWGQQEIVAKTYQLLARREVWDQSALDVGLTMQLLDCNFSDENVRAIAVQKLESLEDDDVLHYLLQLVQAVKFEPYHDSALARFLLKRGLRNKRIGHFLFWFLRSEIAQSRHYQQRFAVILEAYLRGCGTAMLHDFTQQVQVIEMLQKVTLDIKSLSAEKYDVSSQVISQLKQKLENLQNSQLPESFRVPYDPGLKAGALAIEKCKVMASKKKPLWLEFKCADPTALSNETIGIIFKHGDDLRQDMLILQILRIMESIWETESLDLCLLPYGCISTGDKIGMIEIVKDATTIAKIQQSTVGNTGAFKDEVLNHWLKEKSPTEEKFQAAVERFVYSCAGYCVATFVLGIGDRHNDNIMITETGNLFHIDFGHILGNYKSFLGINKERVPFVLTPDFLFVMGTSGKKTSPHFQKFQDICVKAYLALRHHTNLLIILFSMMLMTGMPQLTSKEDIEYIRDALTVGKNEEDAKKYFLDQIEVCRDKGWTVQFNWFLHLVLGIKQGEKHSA
The experiment in a line: Kinobeads two-dose competition binding: PIK3CG. To be noted: sheet "Kinobeads Drugmatrix-nanomolar2" (compounds in rows); read-out: Kinobeads Drugmatrix-nanomolar2: apparent Kd, PIK3CG. The source says:
Supplement 41589_2023_1459_MOESM3_ESM.xlsx, sheet "Kinobeads Drugmatrix-nanomolar2" | column: PIK3CG

Setting [2] is: EC50 with Correction, doses in nM, read-out: apparent Kd.
The mark [3] stands for this setting: eight-dose curve fit, doses in nM.

T1 sequence (Q16512 whole entry): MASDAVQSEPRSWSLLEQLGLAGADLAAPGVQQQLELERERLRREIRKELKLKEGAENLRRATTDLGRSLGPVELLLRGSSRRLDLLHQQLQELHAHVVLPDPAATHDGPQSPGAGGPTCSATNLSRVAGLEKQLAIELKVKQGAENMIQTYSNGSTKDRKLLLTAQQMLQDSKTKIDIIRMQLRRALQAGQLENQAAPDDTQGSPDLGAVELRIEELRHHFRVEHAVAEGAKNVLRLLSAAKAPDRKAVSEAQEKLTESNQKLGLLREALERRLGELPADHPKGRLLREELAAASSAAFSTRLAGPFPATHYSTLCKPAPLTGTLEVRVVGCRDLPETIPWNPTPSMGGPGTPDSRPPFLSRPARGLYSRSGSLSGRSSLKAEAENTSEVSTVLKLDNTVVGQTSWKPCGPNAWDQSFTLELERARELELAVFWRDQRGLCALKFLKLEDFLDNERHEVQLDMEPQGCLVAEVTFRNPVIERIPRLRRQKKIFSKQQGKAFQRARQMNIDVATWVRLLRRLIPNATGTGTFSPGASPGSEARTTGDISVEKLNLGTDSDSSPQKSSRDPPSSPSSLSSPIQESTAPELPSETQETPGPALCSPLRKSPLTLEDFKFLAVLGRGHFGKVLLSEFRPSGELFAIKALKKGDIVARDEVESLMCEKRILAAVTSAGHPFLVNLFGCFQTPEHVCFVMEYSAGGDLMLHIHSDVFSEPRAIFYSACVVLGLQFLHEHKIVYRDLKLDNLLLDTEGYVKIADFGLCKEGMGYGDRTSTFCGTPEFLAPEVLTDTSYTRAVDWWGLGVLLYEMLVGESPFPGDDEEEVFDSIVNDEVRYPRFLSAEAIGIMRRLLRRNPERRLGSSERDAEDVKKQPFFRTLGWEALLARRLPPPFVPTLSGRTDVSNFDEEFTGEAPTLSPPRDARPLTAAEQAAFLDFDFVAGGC
T3 sequence (P08631 whole entry): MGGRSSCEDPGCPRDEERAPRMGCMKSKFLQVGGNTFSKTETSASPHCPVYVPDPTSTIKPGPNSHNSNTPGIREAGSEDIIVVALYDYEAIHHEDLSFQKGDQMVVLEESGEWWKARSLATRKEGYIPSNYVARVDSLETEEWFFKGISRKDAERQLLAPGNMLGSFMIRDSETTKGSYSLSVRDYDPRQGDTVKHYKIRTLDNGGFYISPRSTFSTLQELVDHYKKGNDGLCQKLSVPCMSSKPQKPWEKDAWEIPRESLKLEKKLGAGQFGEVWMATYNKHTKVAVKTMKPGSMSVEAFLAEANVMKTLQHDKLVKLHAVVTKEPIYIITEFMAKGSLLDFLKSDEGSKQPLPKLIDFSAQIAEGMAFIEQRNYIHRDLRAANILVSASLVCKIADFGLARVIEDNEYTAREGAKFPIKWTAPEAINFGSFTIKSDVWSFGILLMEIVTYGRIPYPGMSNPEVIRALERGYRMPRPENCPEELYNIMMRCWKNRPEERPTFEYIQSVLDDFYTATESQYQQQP

On to `CCn1c(-c2nonc2N)nc2c(C#CC(C)(C)O)nc(OCCNC)cc21` [GSK949675A], for which, on PKN1, the “Relative Intensity 0.3nM” value amounted to 1.026, the “Relative Intensity 1nM” value was 1.04, the “Relative Intensity 3nM” value worked out at 1.011 and the “Relative Intensity 10nM” value is 0.946. Besides, at PKN1, the “Relative Intensity 30nM” value is recorded as 0.9307, the “Relative Intensity 100nM” value is 0.9366, the “Relative Intensity 300nM” value is given as 0.7358 and the “Relative Intensity 1000nM” value is listed as 0.4262.

As for `C[C@]12O[C@H](C[C@]1(O)CO)n1c3ccccc3c3c4c(c5c6ccccc6n2c5c31)CNC4=O` [Lestaurtinib], the potency estimated from few doses at FRK was 751 nM; at HCK, 587 nM.

Regarding `NCc1ccc(-c2nc(-c3ccncc3)c(-c3ccc(Cl)c(O)c3)[nH]2)cc1` [SB-476429-A], at RIPK3 (0.3nM compound, DMSO = 1), the “Relative Intensity 0.3nM” value is on record as 1.0435. The “Relative Intensity 1nM” value at RIPK3 (1nM compound, DMSO = 1) amounted to 1.078. Moreover, the “Relative Intensity 3nM” value on RIPK3 (3nM compound, DMSO = 1) is 1.023. In addition, the “Relative Intensity 10nM” value on RIPK3 (10nM compound, DMSO = 1) is 0.8405. In addition, on RIPK3 (30nM compound, DMSO = 1), the “Relative Intensity 30nM” value was determined as 0.9631. Besides, on RIPK3 (100nM compound, DMSO = 1), the “Relative Intensity 100nM” value is listed as 1.023. The “Relative Intensity 300nM” value on RIPK3 (300nM compound, DMSO = 1) worked out at 0.7216. Further, the “Relative Intensity 1000nM” value on RIPK3 (1000nM compound, DMSO = 1) is 0.4701. The Kd at RIPK3 (setting [2]) is 289 nM. Further, the EC50 on RIPK3 (setting [3]) amounted to 296 nM.

For `Cn1cc(-c2nc(N[C@@H]3CCCC[C@@H]3N)c(F)c3c2C(=O)NC3)cn1` [TAK659], in assay [1], the IL-10 levels entry is listed as “dose-dependent reduction”.

In the case of `CCn1c(-c2nonc2N)nc2c(C#CC(C)(C)O)nc(OCCN)cc21` [GSK902056A], at PKN1, the “Relative Intensity 0.3nM” value is 0.9859, the “Relative Intensity 1nM” value was determined as 1.011, the “Relative Intensity 3nM” value is reported as 0.9965 and the “Relative Intensity 10nM” value was 0.9627. At PKN1, the “Relative Intensity 30nM” value was found to be 0.7754, the “Relative Intensity 100nM” value was 0.5397, the “Relative Intensity 300nM” value worked out at 0.2684 and the “Relative Intensity 1000nM” value was determined as 0.1427. Further, the Kd on PKN1 (setting [2]) amounted to 92.3 nM. The EC50 at PKN1 (setting [3]) is 92.3 nM.

Consider `CC(C)N1CC(=O)N(C)c2cnc(Nc3cccc(S(=O)(=O)CCN4CCOCC4)c3)nc21` [BI00009348], for which, at PIK3CG, the potency estimated from few doses was 109 nM.

The record behind these values is publication PMC11062922 (Nature Chemical Biology, 2023).
